# Patent US11319601B2, “Cell based assay” (Medical Diagnostic Laboratories, L.L.C., priority 2017, dated 2022)
# Tests used:
# P780ins HER2 receptor = molecular target: T1, P780ins HER2 receptor (Homo sapiens, UniProt P04626, INS780GSP); experiment: HER2 reporter cells transfected with linear expression cassette of P780ins HER2, all-in-one method; type: cell-based
# T1 construct: expressed in transfected cells; host or cells: HER2 reporter cells (clone #1)
# Text: P780ins corresponds to an insertion mutation of HER2, which adds 3 amino acids (GSP) after the amino acid position of […] (Proline—P). In order to functionally characterize this mutation, PCR-mediated overlapping extension was employed to construct linear expression cassette of HER2 carrying this insertion. The linear expression cassette of mutant HER2 DNA was first transfected into the reporter cells followed by treatment with NRG1 and its inhibitors using the “all-in-one” method. The luciferase reporter activity was measured 24 hours post-transfection.
# L755S HER2 receptor = molecular target: T2, L755S HER2 receptor (Homo sapiens, UniProt P04626, L755S); experiment: HER2 reporter cells transfected with linear expression cassette of L755S HER2, all-in-one method; type: cell-based; details: 24 hours post-transfection
# T2 construct: expressed in transfected cells; host or cells: HER2 reporter cells (clone #1)
# Text: L755S corresponds to a missense mutation of HER2, which changes leucine (L) into serine (S) at amino acid position of 755. In order to functionally characterize this mutation, PCR-mediated overlapping extension was employed to construct linear expression cassette of HER2 carrying this mutation. The linear expression cassette of mutant HER2 DNA was first transfected into the reporter cells followed by treatment with NRG1 and its inhibitors using the “all-in-one” method. The luciferase reporter activity was measured 24 hours post-transfection.
# T862A HER2 receptor = molecular target: T3, T862A HER2 receptor (Homo sapiens, UniProt P04626, T862A); experiment: HER2 reporter cells transfected with linear expression cassette of T862A HER2, all-in-one method; type: cell-based; details: 24 hours post-transfection
# T3 construct: expressed in transfected cells; host or cells: HER2 reporter cells (clone #1)
# Text: T862A corresponds to a missense mutation of HER2, which changes Threonine (T) into Alanine (A) at amino acid position of 862. In order to functionally characterize this mutation, PCR-mediated overlapping extension was employed to construct a linear expression cassette of HER2 carrying this mutation. The linear expression cassette of mutant HER2 DNA was transfected into the reporter cells followed by treatment with NRG1 and its inhibitors using the “all-in-one” method. The luciferase reporter activity was measured 24 hours post-transfection.
# HER2 receptor = HER2 receptor (Homo sapiens, UniProt P04626); experiment: Luciferase reporters (ERK-Luc, FRE-Luc, JNK-Luc, NFkB-Luc) in HEK293 cells overexpressing HER2, treated with lapatinib; type: cell-based; details: 10 nM, 4 hours
# Experimental: In order to identify a reporter to measure the activity of HER2 receptor, the HEK293 cells were transfected with different reporter constructs, including ERK-Luc, FRE-Luc, JNK-Luc and NFkB-Luc, in the absence or presence of HER2 expression plasmid. After 24 hours, the luciferase reporter activity of the transfected cells was measured by Nano-Glo® Luciferase Assay (Promega). […] The luciferase reporter activity of the transfected cells was measured by Nano-Glo® Luciferase Assay (Promega). […] For cell transfection experiments, HEK293 cells (ATCC) were plated at density of 4-8×10^4 cells per well (96-well plates) or 1-2×10^4 cells per well (384-well plates) in phenol red-free MEM containing 10% FBS and antibiotics. Either DNA plasmid or linear DNA was mixed with TransIT-293 transfection reagent (Mirus Bio LLC). Once cells were trypsinized, DNA transfection mix was added. The cells were then incubated for 24 or 48 hours.
# [1] = test system: HER1, HER2 and HER3 receptors; experiment: ERK-Luc, JNK-Luc and NFkB-Luc reporters in HEK293 cells co-transfected with HER1, HER2 and HER3, treated with ligand; type: cell-based, human; details: ligand 6 hours; HER1, HER2, HER3 co-transfected HEK293
# Experimental: In order to identify reporters to measure the activity of HER2 receptor, expression plasmids of HER1, HER2 and HER3 were co-transfected with different reporter constructs, including ERK-Luc, JNK-Luc and NFkB-Luc, into the HEK293 cells. After 24 hours, the transfected cells were treated with either EGF (HER1 receptor ligand) or NRG1 (HER3 receptor ligand) for 6 hours. The luciferase reporter activity of the transfected cells was measured by Nano-Glo® Luciferase Assay (Promega). […] JNK-Luc reporter was activated when the transfected cells were treated with either HER1 or HER3 ligand (FIG. 11B).
# (§1) For cell transfection experiments, HEK293 cells (ATCC) were plated at density of 4-8×10^4 cells per well (96-well plates) or 1-2×10^4 cells per well (384-well plates) in phenol red-free MEM containing 10% FBS and antibiotics. Either DNA plasmid or linear DNA was mixed with TransIT-293 transfection reagent (Mirus Bio LLC). Once cells were trypsinized, DNA transfection mix was added. The cells were then incubated for 24 or 48 hours.
# HER1 and HER2 receptors = experiment: JNK-Luc reporter in HEK293 cells with HER1 and wild-type or kinase-dead HER2, treated with EGF; type: cell-based, human; details: HER1 plus wild-type or kinase-dead HER2
# Experimental: In order to characterize the specificity of activation of JNK-Luc reporter upon treatment of HER1 ligand, JNK-Luc was co-transfected with expression plasmids of HER1 and wild-type or kinase-dead HER2 receptors into the HEK293 cells. After 24 hours, the transfected cells were treated with EGF (HER1 receptor ligand). The luciferase reporter activity of the transfected cells was measured by Nano-Glo® Luciferase Assay (Promega). In FIG. 12, no difference was found between the cells transfected with wild-type HER2 and kinase-dead HER2.
# as §1
Compound,"reporter activity after HER2 inhibitor in the presence of NRG1 (P780ins HER2 receptor; all-in-one method, 24 hours post-transfection)","activity retained compared to the cells without the treatment of inhibitor (P780ins HER2 receptor; high concentration of lapatinib, in the presence of NRG1)",reporter activity after HER2 inhibitor in the presence of NRG1 (L755S HER2 receptor),reporter activity after HER2 inhibitor in the presence of NRG1 (T862A HER2 receptor),inhibition of increased reporter activities upon HER2 expression (HER2 receptor),JNK-Luc reporter activation [1],NFkB-Luc reporter activation [1],JNK-Luc reporter activation (HER1 and HER2 receptors)
CS(=O)(=O)CCNCc1ccc(-c2ccc3ncnc(Nc4ccc(OCc5cccc(F)c5)c(Cl)c4)c3c2)o1 [Lapatinib],very minor reduction of reporter activity,more than 75%,did not respond,did not respond,did not inhibit,–,–,–
EGF: HER1 receptor ligand (NSDSECPLSHDGYCLHDGVCMYIEALDKYACNCVVGYIGERCQYRDLKWWELR),–,–,–,–,–,activated,no activation,effectively activated
